Source: PubChem BioAssay (NCI)
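Compound exposure: 48 hours, 5 concentrations, 96-well plates. GI50 marks 50% less growth. The concentration for full growth arrest is given as TGI.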

Legend:
Experiment in all cases: inhibition of tumour cell growth, NCI panel, 48 h
NCI-H460 lung = system: NCI-H460 lung
IGROV1 ovarian = system: IGROV1 ovarian
SF-268 CNS = system: SF-268 CNS
NCI-H23 lung = system: NCI-H23 lung
OVCAR-8 ovarian = system: OVCAR-8 ovarian
HCC-2998 colon = system: HCC-2998 colon
SN12C renal = system: SN12C renal
RXF 393 renal = system: RXF 393 renal
CCRF-CEM leukemia = system: CCRF-CEM leukemia
UACC-257 melanoma = system: UACC-257 melanoma
HOP-62 NSCLC = system: HOP-62 NSCLC
CAKI-1 renal = system: CAKI-1 renal
LOX IMVI melanoma = system: LOX IMVI melanoma
K-562 leukemia = system: K-562 leukemia
A498 renal = system: A498 renal
DU-145 prostate = system: DU-145 prostate
NCI/ADR-RES ovarian = system: NCI/ADR-RES ovarian

Compound	TGI (NCI-H460 lung) [µM]	TGI (IGROV1 ovarian) [µM]	TGI (SF-268 CNS) [µM]	TGI (NCI-H23 lung) [µM]	TGI (OVCAR-8 ovarian) [µM]	TGI (HCC-2998 colon) [µM]	TGI (SN12C renal) [µM]	TGI (RXF 393 renal) [µM]	TGI (CCRF-CEM leukemia) [µM]	TGI (UACC-257 melanoma) [µM]	TGI (HOP-62 NSCLC) [µM]	TGI (CAKI-1 renal) [µM]	TGI (LOX IMVI melanoma) [µM]	TGI (K-562 leukemia) [µM]	TGI (A498 renal) [µM]	TGI (DU-145 prostate) [µM]	TGI (NCI/ADR-RES ovarian) [µM]	GI50 (HCC-2998 colon) [µM]	GI50 (A498 renal) [µM]
CCc1cc2c(O)c(c1)Cc1cc(CC)cc(c1O)Cc1cc(CC)cc(c1O)Cc1cc(CC)cc(c1O)Cc1cc(CC)cc(c1O)Cc1cc(CC)cc(c1O)Cc1cc(CC)cc(c1O)C2	> 100	> 100	> 100	> 100	> 100	> 100	> 100	43.3	> 100	> 100	> 100								
CC1(C)c2ccccc2N2O[C@@H]3C(=O)N(c4ccccc4)C(=O)[C@@H]3C21c1ccccc1 (stereo not given in full)		> 100	> 100	> 100	> 100	> 100	> 100	> 100	> 100	> 100	> 100	> 100	> 100	> 100					
COC(=O)c1c(-c2cc(OC)c(OC)c(OC)c2)oc2ccccc2c1=O	> 100	> 100		> 100	> 100	> 100	> 100	> 100	> 100	> 100	> 100	> 100	> 100	> 100	> 100				
CC(C)(C)[C@H]1CO[C@]2(c3ccccc3)[C@@H]3C[C@@H]3C(=O)N12	> 100	> 100	> 100	> 100	> 100	> 100	> 100	> 100		> 100	> 100	> 100	> 100						
O=C(CC(C(=O)c1ccsc1)c1ccsc1)c1ccsc1 (stereo not given)	> 100	> 100	> 100	> 100	> 100	> 100	> 100		> 100	> 100	> 100	> 100	> 100	> 100	> 100	> 100	> 100		
CCOC(=N)CC(=O)Nc1ccccc1	> 46.4	> 46.4	> 46.4	> 46.4	> 21.5	> 31.6	> 46.4	> 46.4	> 31.6	> 46.4	> 46.4	> 100	> 71.4	> 31.6	> 46.4				
CC(=O)c1ccccc1NC(=O)C(=O)C(C(=O)c1ccccc1-c1ccccc1)C1OC(=O)c2ccccc21 (stereo not given)	35.3	54.3		31	47.9	30.9	43.5	25	> 100	32.3	44.9	> 100	37.7	> 100	38.2				
CCN(CC)C(=S)SCC(=O)Nc1nc2c(s1)CCCC2	> 100	> 100	> 100	> 100	> 100	> 100	> 100		> 100	> 100	> 100		> 100		> 100				
CN(C)c1ccc(/C=N/c2nc3cc4sc(/N=C/c5ccc(N(C)C)cc5)nc4cc3s2)cc1	> 100	> 100	> 100	> 100	> 100		> 100		> 100	> 100	> 100	> 100	> 100	> 100	> 100	99.1	> 100		
CC1(C)C(=O)C(C)(C)C1=NNC(N)=S	> 100	> 100	> 100	> 100	> 100	> 100	> 100	> 100		> 100	> 100	> 100	> 100	> 100					
Cn1c(=O)cc2[nH]c3ccccc3n2c1=O	> 100	> 100	> 100	> 100	> 100	> 100		64.2	> 100	> 100	> 100	> 100	38.4	> 100	> 100				
COC(=O)CC(C(C(=O)OC)C(=O)OC)N1C(=O)OC(c2ccccc2)C1c1ccccc1 (stereo not given)	> 100	> 100	> 100	> 100	> 100	93.1	> 100	> 100	> 100	> 100	> 100	39	> 100	> 100	> 100				
COc1ccc(OC)c(NC(=O)C(=O)CC(=O)c2sc(-n3nc(-c4ccccc4)cc3-c3ccccc3)nc2C)c1	> 100	> 100		> 100	> 100	> 100	> 100	> 100	> 100	> 100	> 100	> 100	> 100	> 100	> 100				
Cc1ccc(/C=C/C(=O)c2sc(-n3nc(-c4ccccc4)cc3-c3ccccc3)nc2C)cc1	> 100	> 100	> 100	> 100	> 100	> 100	> 100	> 100	> 100	> 100	> 100	> 100	> 100	> 100	> 100				
COc1cc2c(oc(=O)c3cc4cc([Si](C)(C)C)oc4c(OC)c32)c2cccc(O)c12	> 100	> 100	> 100	> 100	> 100	> 100	> 100	> 100	> 100	> 100	> 100	> 100	> 100	> 100	> 100				
CC1=NN2C(c3ccc([N+](=O)[O-])cc3)=CSC2=NC(C)(C)C1	> 100	> 100	> 100	> 100	> 100	> 100	> 100	> 100	> 100	> 100	> 100		> 100	> 100	> 100				

Compound	TGI (NCI-H460 lung) [µM]	TGI (IGROV1 ovarian) [µM]	TGI (SF-268 CNS) [µM]	TGI (NCI-H23 lung) [µM]	TGI (OVCAR-8 ovarian) [µM]	TGI (HCC-2998 colon) [µM]	TGI (SN12C renal) [µM]	TGI (RXF 393 renal) [µM]	TGI (CCRF-CEM leukemia) [µM]	TGI (UACC-257 melanoma) [µM]	TGI (HOP-62 NSCLC) [µM]	TGI (CAKI-1 renal) [µM]	TGI (LOX IMVI melanoma) [µM]	TGI (K-562 leukemia) [µM]	TGI (A498 renal) [µM]	TGI (DU-145 prostate) [µM]	TGI (NCI/ADR-RES ovarian) [µM]	GI50 (HCC-2998 colon) [µM]	GI50 (A498 renal) [µM]
C[C@]12CC[C@H](O)CC1=CC[C@@H]1C2CC[C@]2(C)C(=O)NC(=O)CC12 (stereo not given in full)	> 100	> 100	> 100	> 100	> 100	> 100	> 100	> 100	> 100	> 100	> 100	> 100	> 100	92.1	> 100				
Nc1nc(N)c2ncn(CCOC(c3ccccc3)P(=O)(O)O)c2n1 (stereo not given)	> 100	> 100	> 100	> 100	> 100	> 100	> 100	> 100	> 100	> 100		> 100	> 100		> 100				
CC(C)OC/N=C(/N)NC#N	> 100	> 100	> 100	> 100	> 100	> 100	> 100	> 100		> 100	> 100	> 100	43.7	> 100	> 100				
COc1cc([C@@H]2c3cc4c(cc3[C@@H](OC(=O)c3cccc(N)c3)C3COC(=O)[C@@H]32)OCO4)cc(OC)c1O (stereo not given in full)	20.4	> 64.8	> 61.1	6.2	> 100	28.7	31.3	83.5	> 43	> 77.3	18	29.6	33.8	> 100	16.6				
O=C1OCC(c2ccc(Cl)cc2)=C1Cl	46.2	25.2	70	54.6	73.6	47.8	80.4	54.1	75.6	> 100	56	88.4	60.3	92.6	> 100	> 100	55.8		
Cc1ccc(N=C2N=C(N3CC(C)OC(C)C3)c3ccccc32)cc1 (stereo not given)	> 100	88.8	> 100	78.8	> 100	79.5	> 100	34.4	66.8	74.6	> 100	51	> 100	> 100	90.1				
CSc1ccc(NC(=O)C2c3[nH]c4ccccc4c3C3CCC(C(C)(C)C)CC3C2C(=O)O)cc1 (stereo not given)		51.8	47	58.7	28.8	> 100	36.8	49.5	25.8	> 100	32.1			> 100	35.4				
C=CCCCN1CCCC(C)C1=S (stereo not given)	> 100	> 100	> 100	> 100	> 100	> 100		> 100	> 100	> 100	> 100		> 100	> 100	> 100				
COc1ccc(CNc2nc(NCc3ccc(OC)cc3)nc(NC3CCCC3)n2)cc1	> 33.8	> 33.7	> 100	> 22.2	20	38.6	> 100	3.61	> 100	> 100	> 100	> 84.1	76.9	> 24.7	> 100	> 40.7	13.4	3.67	62.1
N#Cc1ccc(Oc2ccccc2)cc1C#N	> 100	> 100	> 100	> 100	> 100	> 100	> 100	> 100	56.9	> 100	> 100	> 100	38.7	> 100	> 100				
C(=C\C(Sc1ccccc1)c1ccccc1)/NNC1=NC(c2ccccc2)C(c2ccccc2)=NN1 (stereo not given)	> 100	> 100	> 100	> 100	> 100	> 100	> 100		49.5	> 100	> 100	> 100	> 100	38					
c1ccc2c(c1)Cc1c(Cc3csc4ccccc34)ccc3cccc-2c13	> 100	> 100	> 100	> 100	> 100	> 100	> 100	> 100	> 100	> 100	> 100			> 100					
CC1(C)Cc2c(oc3ncnc(N)c23)CS1	> 100	> 100	> 100	> 100	> 100	> 100	> 100		> 100	> 100	> 100	> 100	> 100	> 100					
O=C(CC1C(=O)Nc2ccccc2S1(=O)=O)Nc1ccc(Cl)cc1 (stereo not given)	> 100	37.7	28.6	> 100	> 100	39.6	> 100	38.5	77.7	91.6		43.5	41.8	48.9	> 100				
COc1ccc(OC)c(/C=C2\CCc3ccccc3C2=O)c1	27.5	47.8	22.2	17.3	20.2	9.35	25.5	6.07	14.8		10.8	> 100	20.1	10.8	19.7				
COc1c(I)c(OC)c2c(c1I)O[C@@H]1OCC[C@H]21	56.2	> 100		> 100	> 100	78.6	> 100	72.4	> 100	67.1	> 100	46.1	> 100	> 100	86				
